Each molecule was assayed on CAOV3 (assay: drug sensitivity score (DSS) from 5-point dose-response viability curve (DSS (area-under-curve based score)); higher = more sensitive (stronger growth inhibition or killing); extreme values may be limits of the assay). Details: exposure time: 72 h; concentration range: 5 concentrations over 10,000-fold range.
How it was run: (§1)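 For the drug sensitivity score, obtained per cell line and drug in Breeze software, larger values mean greater sensitivity. No response corresponds to a score of zero. Ovarian cancer and normal ovarian cells were seeded at 1,500 per well into 384-well plates already holding acoustically dispensed drugs (Echo 550, DMSO or water, five concentrations over a 10,000-fold range) and incubated 3 days at 37°C, 5% CO2. CellTiter-Glo luminescence on a PHERAstar FS gave the viability readout.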

Row | Structure (SMILES) | drug sensitivity score
1 | CCC(C)n1ncn(-c2ccc(N3CCN(c4ccc(OCC5COC(Cn6cncn6)(c6ccc(Cl)cc6Cl)O5)cc4)CC3)cc2)c1=O (stereo not drawn) [Itraconazole] | 0
2 | N#Cc1ccnc(N2C(=O)CC[C@H]2C(=O)N(c2cncc(F)c2)[C@H](C(=O)NC2CC(F)(F)C2)c2ccccc2Cl)c1 [Ivosidenib] | 0
3 | C/C(=C\c1csc(C)n1)[C@@H]1C[C@@H]2O[C@]2(C)CCC[C@H](C)[C@H](O)[C@@H](C)C(=O)C(C)(C)[C@@H](O)CC(=O)N1 [Ixabepilone] | 4.6
4 | CC(C)C[C@H](NC(=O)CNC(=O)c1cc(Cl)ccc1Cl)B(O)O [Ixazomib] | 11.6
5 | Nc1cc(COc2c(Cl)cc(C[C@H](N)C(=O)O)cc2Cl)c2oc(-c3ccccc3)nc2c1 [JPH203] | 0
6 | CC(C)NC(=O)COc1cccc(-c2nc(Nc3ccc4[nH]ncc4c3)c3ccccc3n2)c1 [KD025] | 0.4
7 | CS(=O)(=O)CCNCc1ccc(-c2ccc3ncnc(Nc4ccc(OCc5cccc(F)c5)c(Cl)c4)c3c2)o1 [Lapatinib] | 2.4
8 | O=C(Nc1cnn2ccc(N3CCC[C@@H]3c3cc(F)ccc3F)nc12)N1CC[C@H](O)C1 [Larotrectinib] | 0
9 | Oc1ccc2c(c1)CC[C@H](c1ccccc1)[C@@H]2c1ccc(OCCN2CCCC2)cc1 [Lasofoxifene] | 0
10 | Nc1cccc2c1CN(C1CCC(=O)NC1=O)C2=O (stereo not drawn) [Lenalidomide] | 0
11 | COc1cc2nccc(Oc3ccc(NC(=O)NC4CC4)c(Cl)c3)c2cc1C(N)=O [Lenvatinib] | 0
12 | N#Cc1ccc(C(c2ccc(C#N)cc2)n2cncn2)cc1 [Letrozole] | 0
13 | Cc1ccc(F)c(NC(=O)Nc2ccc(-c3cccc4[nH]nc(N)c34)cc2)c1 [Linifanib] | 0
14 | C[C@]1(O)C[C@@H](c2nc(-c3ccc4ccc(-c5ccccc5)nc4c3)c3c(N)nccn32)C1 [Linsitinib] | 1.4
15 | CCNCCS(=O)(=O)NC[C@@]1(c2ccccc2)SC(NC(=O)C(C)(C)C)=NN1C(=O)C(C)(C)C [Litronesib] | 23.2
16 | Nc1nc(OCc2cc(Br)cs2)c2[nH]cnc2n1 [Lomeguatrib] | 0

Row | Structure (SMILES) | drug sensitivity score
17 | NC(=O)N1CCC(CC(=O)N2CCC([C@H]3c4ncc(Br)cc4CCc4cc(Cl)cc(Br)c43)CC2)CC1 [Lonafarnib] | 8.9
18 | Cc1c(F)cc(C(=O)NC2CC2)cc1-c1ccc(C(=O)NCC(C)(C)C)cn1 [Losmapimod] | 0
19 | CC[C@H](C)C(=O)O[C@H]1C[C@@H](C)C=C2C=C[C@H](C)[C@H](CC[C@@H]3C[C@@H](O)CC(=O)O3)[C@H]21 [Lovastatin] | 0
20 | CNC(=O)c1cccc2cc(Oc3ccnc4cc(OCC5(N)CC5)c(OC)cc34)ccc12 [Lucitanib] | 0
21 | CCNC(=O)c1noc(-c2cc(C(C)C)c(O)cc2O)c1-c1ccc(CN2CCOCC2)cc1 [Luminespib] | 16.8
22 | O=C(O)CC[C@H]1CC[C@@](c2cc(F)ccc2F)(S(=O)(=O)c2ccc(Cl)cc2)CC1 [MK-0752] | 0
23 | NC1(c2ccc(-c3nc4ccn5c(=O)[nH]nc5c4cc3-c3ccccc3)cc2)CCC1 [MK-2206] | 1.9
24 | O=C(c1cccc(Cl)c1F)N1CCN(Cc2cccc(Nc3nccs3)n2)CC1 [MK-8745] | 4.9
25 | Cn1cc(-c2cnn3c(N)c(Br)c([C@@H]4CCCNC4)nc23)cn1 [MK-8776] | 1.3
26 | Cc1cnc(-c2ccccc2C(C)C)nc1NCc1ccc(-n2ccnn2)cc1 [ML323] | 0.3
27 | O=C(CCNC(=O)c1ccc(OC(F)(F)F)cc1)N[C@@H]1CCCc2ccccc21 [ML390] | 0.6
28 | O=C(Nc1cccc(NC(=O)c2cccc(O)c2O)c1)c1cccc(O)c1O [MST-312] | 6.7
29 | CNC(=O)[C@@H](NC(=O)[C@H](CC(C)C)[C@H](O)C(=O)NO)C(C)(C)C [Marimastat] | 1.3
30 | Cc1ccc(NC(=O)c2ccc(CN3CCN(C)CC3)cc2)cc1Nc1nc(-c2cccnc2)cs1 [Masitinib] | 0.2
31 | CC(=O)O[C@]1(C(C)=O)CC[C@H]2[C@@H]3C=C(C)C4=CC(=O)CC[C@]4(C)[C@H]3CC[C@@]21C [Megestrol acetate] | 0

The molecules below were run on COV318 in the same assay as above. Details: exposure time: 72 h; concentration range: 5 concentrations over 10,000-fold range.
How it was run: as §1

Row | Structure (SMILES) | drug sensitivity score
32 | CCC(C)n1ncn(-c2ccc(N3CCN(c4ccc(OCC5COC(Cn6cncn6)(c6ccc(Cl)cc6Cl)O5)cc4)CC3)cc2)c1=O (stereo not drawn) [Itraconazole] | 0.9
33 | N#Cc1ccnc(N2C(=O)CC[C@H]2C(=O)N(c2cncc(F)c2)[C@H](C(=O)NC2CC(F)(F)C2)c2ccccc2Cl)c1 [Ivosidenib] | 0
34 | C/C(=C\c1csc(C)n1)[C@@H]1C[C@@H]2O[C@]2(C)CCC[C@H](C)[C@H](O)[C@@H](C)C(=O)C(C)(C)[C@@H](O)CC(=O)N1 [Ixabepilone] | 2.9
35 | CC(C)C[C@H](NC(=O)CNC(=O)c1cc(Cl)ccc1Cl)B(O)O [Ixazomib] | 16.4
36 | Nc1cc(COc2c(Cl)cc(C[C@H](N)C(=O)O)cc2Cl)c2oc(-c3ccccc3)nc2c1 [JPH203] | 0
37 | CC(C)NC(=O)COc1cccc(-c2nc(Nc3ccc4[nH]ncc4c3)c3ccccc3n2)c1 [KD025] | 0
38 | CS(=O)(=O)CCNCc1ccc(-c2ccc3ncnc(Nc4ccc(OCc5cccc(F)c5)c(Cl)c4)c3c2)o1 [Lapatinib] | 0
39 | O=C(Nc1cnn2ccc(N3CCC[C@@H]3c3cc(F)ccc3F)nc12)N1CC[C@H](O)C1 [Larotrectinib] | 0
40 | Oc1ccc2c(c1)CC[C@H](c1ccccc1)[C@@H]2c1ccc(OCCN2CCCC2)cc1 [Lasofoxifene] | 0
41 | Nc1cccc2c1CN(C1CCC(=O)NC1=O)C2=O (stereo not drawn) [Lenalidomide] | 0
42 | COc1cc2nccc(Oc3ccc(NC(=O)NC4CC4)c(Cl)c3)c2cc1C(N)=O [Lenvatinib] | 0.9
43 | N#Cc1ccc(C(c2ccc(C#N)cc2)n2cncn2)cc1 [Letrozole] | 0
44 | Cc1ccc(F)c(NC(=O)Nc2ccc(-c3cccc4[nH]nc(N)c34)cc2)c1 [Linifanib] | 0.2
45 | C[C@]1(O)C[C@@H](c2nc(-c3ccc4ccc(-c5ccccc5)nc4c3)c3c(N)nccn32)C1 [Linsitinib] | 0
46 | CCNCCS(=O)(=O)NC[C@@]1(c2ccccc2)SC(NC(=O)C(C)(C)C)=NN1C(=O)C(C)(C)C [Litronesib] | 3.4
47 | Nc1nc(OCc2cc(Br)cs2)c2[nH]cnc2n1 [Lomeguatrib] | 0.4

Row | Structure (SMILES) | drug sensitivity score
48 | NC(=O)N1CCC(CC(=O)N2CCC([C@H]3c4ncc(Br)cc4CCc4cc(Cl)cc(Br)c43)CC2)CC1 [Lonafarnib] | 9.2
49 | Cc1c(F)cc(C(=O)NC2CC2)cc1-c1ccc(C(=O)NCC(C)(C)C)cn1 [Losmapimod] | 0.4
50 | CC[C@H](C)C(=O)O[C@H]1C[C@@H](C)C=C2C=C[C@H](C)[C@H](CC[C@@H]3C[C@@H](O)CC(=O)O3)[C@H]21 [Lovastatin] | 0
51 | CNC(=O)c1cccc2cc(Oc3ccnc4cc(OCC5(N)CC5)c(OC)cc34)ccc12 [Lucitanib] | 2.3
52 | CCNC(=O)c1noc(-c2cc(C(C)C)c(O)cc2O)c1-c1ccc(CN2CCOCC2)cc1 [Luminespib] | 11.6
53 | O=C(O)CC[C@H]1CC[C@@](c2cc(F)ccc2F)(S(=O)(=O)c2ccc(Cl)cc2)CC1 [MK-0752] | 0
54 | NC1(c2ccc(-c3nc4ccn5c(=O)[nH]nc5c4cc3-c3ccccc3)cc2)CCC1 [MK-2206] | 1.2
55 | O=C(c1cccc(Cl)c1F)N1CCN(Cc2cccc(Nc3nccs3)n2)CC1 [MK-8745] | 0
56 | Cn1cc(-c2cnn3c(N)c(Br)c([C@@H]4CCCNC4)nc23)cn1 [MK-8776] | 0
57 | Cc1cnc(-c2ccccc2C(C)C)nc1NCc1ccc(-n2ccnn2)cc1 [ML323] | 0.1
58 | O=C(CCNC(=O)c1ccc(OC(F)(F)F)cc1)N[C@@H]1CCCc2ccccc21 [ML390] | 4.1
59 | O=C(Nc1cccc(NC(=O)c2cccc(O)c2O)c1)c1cccc(O)c1O [MST-312] | 5.4
60 | CNC(=O)[C@@H](NC(=O)[C@H](CC(C)C)[C@H](O)C(=O)NO)C(C)(C)C [Marimastat] | 0
61 | Cc1ccc(NC(=O)c2ccc(CN3CCN(C)CC3)cc2)cc1Nc1nc(-c2cccnc2)cs1 [Masitinib] | 1.7
62 | CC(=O)O[C@]1(C(C)=O)CC[C@H]2[C@@H]3C=C(C)C4=CC(=O)CC[C@]4(C)[C@H]3CC[C@@]21C [Megestrol acetate] | 0

What follows are molecules tested on COV362 in the same assay as above. Details: exposure time: 72 h; concentration range: 5 concentrations over 10,000-fold range.
How it was run: as §1

Row | Structure (SMILES) | drug sensitivity score
63 | CCC(C)n1ncn(-c2ccc(N3CCN(c4ccc(OCC5COC(Cn6cncn6)(c6ccc(Cl)cc6Cl)O5)cc4)CC3)cc2)c1=O (stereo not drawn) [Itraconazole] | 0.6
64 | N#Cc1ccnc(N2C(=O)CC[C@H]2C(=O)N(c2cncc(F)c2)[C@H](C(=O)NC2CC(F)(F)C2)c2ccccc2Cl)c1 [Ivosidenib] | 0
65 | C/C(=C\c1csc(C)n1)[C@@H]1C[C@@H]2O[C@]2(C)CCC[C@H](C)[C@H](O)[C@@H](C)C(=O)C(C)(C)[C@@H](O)CC(=O)N1 [Ixabepilone] | 1.3
66 | CC(C)C[C@H](NC(=O)CNC(=O)c1cc(Cl)ccc1Cl)B(O)O [Ixazomib] | 10.5
67 | Nc1cc(COc2c(Cl)cc(C[C@H](N)C(=O)O)cc2Cl)c2oc(-c3ccccc3)nc2c1 [JPH203] | 0
68 | CC(C)NC(=O)COc1cccc(-c2nc(Nc3ccc4[nH]ncc4c3)c3ccccc3n2)c1 [KD025] | 0.5
69 | CS(=O)(=O)CCNCc1ccc(-c2ccc3ncnc(Nc4ccc(OCc5cccc(F)c5)c(Cl)c4)c3c2)o1 [Lapatinib] | 0
70 | O=C(Nc1cnn2ccc(N3CCC[C@@H]3c3cc(F)ccc3F)nc12)N1CC[C@H](O)C1 [Larotrectinib] | 0
71 | Oc1ccc2c(c1)CC[C@H](c1ccccc1)[C@@H]2c1ccc(OCCN2CCCC2)cc1 [Lasofoxifene] | 0
72 | Nc1cccc2c1CN(C1CCC(=O)NC1=O)C2=O (stereo not drawn) [Lenalidomide] | 0
73 | COc1cc2nccc(Oc3ccc(NC(=O)NC4CC4)c(Cl)c3)c2cc1C(N)=O [Lenvatinib] | 0
74 | N#Cc1ccc(C(c2ccc(C#N)cc2)n2cncn2)cc1 [Letrozole] | 0
75 | Cc1ccc(F)c(NC(=O)Nc2ccc(-c3cccc4[nH]nc(N)c34)cc2)c1 [Linifanib] | 0
76 | C[C@]1(O)C[C@@H](c2nc(-c3ccc4ccc(-c5ccccc5)nc4c3)c3c(N)nccn32)C1 [Linsitinib] | 0
77 | CCNCCS(=O)(=O)NC[C@@]1(c2ccccc2)SC(NC(=O)C(C)(C)C)=NN1C(=O)C(C)(C)C [Litronesib] | 1.1
78 | Nc1nc(OCc2cc(Br)cs2)c2[nH]cnc2n1 [Lomeguatrib] | 0

Row | Structure (SMILES) | drug sensitivity score
79 | NC(=O)N1CCC(CC(=O)N2CCC([C@H]3c4ncc(Br)cc4CCc4cc(Cl)cc(Br)c43)CC2)CC1 [Lonafarnib] | 1.9
80 | Cc1c(F)cc(C(=O)NC2CC2)cc1-c1ccc(C(=O)NCC(C)(C)C)cn1 [Losmapimod] | 0
81 | CC[C@H](C)C(=O)O[C@H]1C[C@@H](C)C=C2C=C[C@H](C)[C@H](CC[C@@H]3C[C@@H](O)CC(=O)O3)[C@H]21 [Lovastatin] | 0.1
82 | CNC(=O)c1cccc2cc(Oc3ccnc4cc(OCC5(N)CC5)c(OC)cc34)ccc12 [Lucitanib] | 0
83 | CCNC(=O)c1noc(-c2cc(C(C)C)c(O)cc2O)c1-c1ccc(CN2CCOCC2)cc1 [Luminespib] | 13.8
84 | O=C(O)CC[C@H]1CC[C@@](c2cc(F)ccc2F)(S(=O)(=O)c2ccc(Cl)cc2)CC1 [MK-0752] | 0
85 | NC1(c2ccc(-c3nc4ccn5c(=O)[nH]nc5c4cc3-c3ccccc3)cc2)CCC1 [MK-2206] | 0.4
86 | O=C(c1cccc(Cl)c1F)N1CCN(Cc2cccc(Nc3nccs3)n2)CC1 [MK-8745] | 0
87 | Cn1cc(-c2cnn3c(N)c(Br)c([C@@H]4CCCNC4)nc23)cn1 [MK-8776] | 0
88 | Cc1cnc(-c2ccccc2C(C)C)nc1NCc1ccc(-n2ccnn2)cc1 [ML323] | 0
89 | O=C(CCNC(=O)c1ccc(OC(F)(F)F)cc1)N[C@@H]1CCCc2ccccc21 [ML390] | 0
90 | O=C(Nc1cccc(NC(=O)c2cccc(O)c2O)c1)c1cccc(O)c1O [MST-312] | 5.1
91 | CNC(=O)[C@@H](NC(=O)[C@H](CC(C)C)[C@H](O)C(=O)NO)C(C)(C)C [Marimastat] | 0
92 | Cc1ccc(NC(=O)c2ccc(CN3CCN(C)CC3)cc2)cc1Nc1nc(-c2cccnc2)cs1 [Masitinib] | 1.4
93 | CC(=O)O[C@]1(C(C)=O)CC[C@H]2[C@@H]3C=C(C)C4=CC(=O)CC[C@]4(C)[C@H]3CC[C@@]21C [Megestrol acetate] | 0
